Measured values published in patent US9113629B2, “4-amino-6-(4-substituted-phenyl)-picolinates and 6-amino-2-(4-substituted-phenyl)-pyrimidine-4-carboxylates and their use as herbicides” (DOW AGROSCIENCES LLC, priority 2013, dated 2015).
Like-named read-outs stand apart in the source and are kept apart here.

Key:
[1] = system: Key Grass and Sedge Weeds as well as Grass Crops; experiment: Post-emergent Test II herbicidal activity (Table 6); type: in vivo; settings: for pest or weed control at 70 g/ha / pest or weed control at 140 g/ha: post-emergence, 336 h; for pest or weed control at 70 g/ha: application rate 70 g ai/ha; for pest or weed control at 140 g/ha: application rate 140 g ai/ha; for Visual Growth Reduction (%) 14 Days After Application, CYPES: CYPES: yellow nutsedge (Cyperus esculentus); for Visual Growth Reduction (%) 14 Days After Application, ORYSA / Visual Growth Reduction (%) 14 Days After Application, TRZSS / Visual Growth Reduction (%) 14 Days After Application, ZEAMX: crop; for Visual Growth Reduction (%) 14 Days After Application, SORVU: SORVU: sorghum (Sorghum vulgare); for Visual Growth Reduction (%) 14 Days After Application, TRZSS: TRZSS (wheat, Triticum aestivum)
Experimental: (§1) Post-emergent Test II: Seeds or nutlets of the desired test plant species were planted in Sun Gro Metro-Mix® 360 planting mixture, which typically has a pH of 6.0 to 6.8 and an organic matter content of about 30 percent, in plastic pots with a surface area of 64 square centimeters. When required to ensure good germination and healthy plants, a fungicide treatment and/or other chemical or physical treatment was applied. The plants were grown for 7-21 d in a greenhouse with an approximate 15 h photoperiod which was maintained at about 23-29° C. during the day and 22-28° C. during the night. Nutrients and water were added on a regular basis and supplemental lighting was provided with overhead metal halide 1000-Watt lamps as necessary. The plants were employed for testing when they reached the first or second true leaf stage.
(§2) A weighed amount, determined by the highest rate to be tested, of each test compound was placed in a 25 mL glass vial and was dissolved in 4 mL of a 97:3 v/v mixture of acetone and DMSO to obtain concentrated stock solutions. […] The concentrated stock solutions obtained were diluted with 20 mL of an aqueous mixture containing acetone, water, isopropyl alcohol, DMSO. Atplus 411F crop oil concentrate, and Triton® X-155 surfactant in a 48.5:39:10:1.5:1.0:0.02 v/v ratio to obtain spray solutions containing the highest application rates. Additional application rates were obtained by serial dilution of 12 mL of the high rate solution into a solution containing 2 mL of 97:3 v/v mixture of acetone and DMSO and 10 mL of an aqueous mixture containing acetone, water, isopropyl alcohol, DMSO, Atplus 411F crop oil concentrate, and Triton X-155 surfactant in a 48.5:39:10:1.5:1.0:0.02 v/v ratio to obtain ½×, ¼×, ⅛× and 1/16× rates of the high rate. Compound requirements are based upon a 12 mL application volume at a rate of 187 liters per hectare (L/ha). Formulated compounds were applied to the plant material with an overhead Mandel track sprayer equipped with 8002E nozzles calibrated to deliver 187 L/ha over an application area of 0.503 square meters at a spray height of 18 inches (43 cm) above the average plant canopy height. Control plants were sprayed in the same manner with the solvent blank.
(§3) The treated plants and control plants were placed in a greenhouse as described above and watered by subirrigation to prevent wash-off of the test compounds. After 14 d, the condition of the test plants as compared with that of the untreated plants was determined visually and scored on a scale of 0 to 100 percent where 0 corresponds to no injury and 100 corresponds to complete kill.

[2] = system: Key Broadleaf Weed and Crop Species; experiment: Post-emergent Test II herbicidal activity (Table 5); type: in vivo; settings: for pest or weed control at 140 g/ha / pest or weed control at 70 g/ha: post-emergence, 336 h, 14 days after application; for pest or weed control at 140 g/ha: 140 g ai/ha, post-emergent
Experimental: as §1, §2, §3

[3] = Triticum aestivum, TRZSS (wheat), read-out: Visual Growth Reduction (%) 14 Days After Application, TRZSS
[4] = DIGSA: crabgrass (Digitaria sanguinalis), read-out: Visual Growth Reduction (%) 14 Days After Application, DIGSA
[5] = ECHCG: barnyardgrass (Echinochloa crus-galli), read-out: Visual Growth Reduction (%) 14 Days After Application, ECHCG
[6] = ORYSA: rice (Oryza sativa), read-out: Visual Growth Reduction (%) 14 Days After Application, ORYSA
[7] = SORVU: grain sorghum (Sorghum vulgare), read-out: Visual Growth Reduction (%) 14 Days After Application, SORVU
[8] = ZEAMX: maize, corn (Zea mays), read-out: Visual Growth Reduction (%) 14 Days After Application, ZEAMX

## COc1c(N)nc(-c2ccc(C(F)(F)F)c(F)c2)nc1C(=O)O [Compound 63]
[1]; [3]
  pest or weed control at 70 g/ha: 60 to 74%
  pest or weed control at 140 g/ha: 60 to 74%
[1]; [4]
  pest or weed control at 70 g/ha: 60 to 74%
  pest or weed control at 140 g/ha: 60 to 74%
[1]; [5]
  pest or weed control at 70 g/ha: 75 to 84%
  pest or weed control at 140 g/ha: 95 to 100%
[1]; [6]
  pest or weed control at 70 g/ha: 0 to 29%
  pest or weed control at 140 g/ha: 0 to 29%
[1]; SETFA: giant foxtail (Setaria faberi), read-out: Visual Growth Reduction (%) 14 Days After Application, SETFA
  pest or weed control at 140 g/ha: 95 to 100%
[1]; [7]
  pest or weed control at 70 g/ha: 0 to 29%
  pest or weed control at 140 g/ha: 30 to 44%
[1]; [8]
  pest or weed control at 70 g/ha: 60 to 74%
  pest or weed control at 140 g/ha: 60 to 74%
[2]; ABUTH: velvetleaf (Abutilon theophrasti), read-out: Visual Growth Reduction (%) 14 Days After Application ABUTH
  pest or weed control at 140 g/ha: 85 to 94%
[2]; ABUTH: velvetleaf (Abutilon theophrasti), application rate 70 g ai/ha, read-out: Visual Growth Reduction (%) 14 Days After Application, ABUTH
  pest or weed control at 70 g/ha: 60 to 74%
[2]; AMARE: redroot pigweed (Amaranthus retroflexus), read-out: Visual Growth Reduction (%) 14 Days After Application AMARE
  pest or weed control at 140 g/ha: 75 to 84%
[2]; AMARE: redroot pigweed (Amaranthus retroflexus), application rate 70 g ai/ha, read-out: Visual Growth Reduction (%) 14 Days After Application, AMARE
  pest or weed control at 70 g/ha: 60 to 74%
[2]; BRSNN: oilseed-rape, canola (Brassica napus), read-out: Visual Growth Reduction (%) 14 Days After Application BRSNN
  pest or weed control at 140 g/ha: 85 to 94%
[2]; BRSNN: oilseed-rape, canola (Brassica napus), application rate 70 g ai/ha, read-out: Visual Growth Reduction (%) 14 Days After Application, BRSNN
  pest or weed control at 70 g/ha: 75 to 84%
[2]; CHEAL: lambsquarters (Chenopodium album), read-out: Visual Growth Reduction (%) 14 Days After Application CHEAL
  pest or weed control at 140 g/ha: 95 to 100%
[2]; CHEAL: lambsquarters (Chenopodium album), application rate 70 g ai/ha, read-out: Visual Growth Reduction (%) 14 Days After Application, CHEAL
  pest or weed control at 70 g/ha: 85 to 94%
[2]; EPHHL: wild poinsettia (Euphorbia heterophylla), read-out: Visual Growth Reduction (%) 14 Days After Application EPHHL
  pest or weed control at 140 g/ha: 95 to 100%
[2]; EPHHL: wild poinsettia (Euphorbia heterophylla), application rate 70 g ai/ha, read-out: Visual Growth Reduction (%) 14 Days After Application, EPHHL
  pest or weed control at 70 g/ha: 95 to 100%
[2]; HELAN: sunflower (Helianthus annuus), read-out: Visual Growth Reduction (%) 14 Days After Application HELAN
  pest or weed control at 140 g/ha: 85 to 94%
[2]; HELAN: sunflower (Helianthus annuus), application rate 70 g ai/ha, read-out: Visual Growth Reduction (%) 14 Days After Application, HELAN
  pest or weed control at 70 g/ha: 85 to 94%
[2]; VIOTR: wild pansy (Viola tricolor), read-out: Visual Growth Reduction (%) 14 Days After Application VIOTR
  pest or weed control at 140 g/ha: 95 to 100%
[2]; VIOTR: wild pansy (Viola tricolor), application rate 70 g ai/ha, read-out: Visual Growth Reduction (%) 14 Days After Application, VIOTR
  pest or weed control at 70 g/ha: 75 to 84%

## COC(=O)c1nc(-c2ccc([N+](=O)[O-])cc2F)c(F)c(N)c1Cl [Compound 80]
[1]; 70 g ai/ha
  Visual Growth Reduction (%) 14 Days After Application, CYPES: G (0-29)
  Visual Growth Reduction (%) 14 Days After Application, SORVU: G (0-29)
  Visual Growth Reduction (%) 14 Days After Application, TRZSS: G (0-29)
[1]; 140 g ai/ha
  Visual Growth Reduction (%) 14 Days After Application, CYPES: G (0-29)
  Visual Growth Reduction (%) 14 Days After Application, SORVU: G (0-29)
  Visual Growth Reduction (%) 14 Days After Application, TRZSS: G (0-29)
[1]; DIGSA: crabgrass (Digitaria sanguinalis), 70 g ai/ha
  Visual Growth Reduction (%) 14 Days After Application, DIGSA: G (0-29)
[1]; DIGSA: crabgrass (Digitaria sanguinalis), 140 g ai/ha
  Visual Growth Reduction (%) 14 Days After Application, DIGSA: G (0-29)
[1]; ECHCG: barnyardgrass (Echinochloa crus-galli), 70 g ai/ha
  Visual Growth Reduction (%) 14 Days After Application, ECHCG: G (0-29)
[1]; ECHCG: barnyardgrass (Echinochloa crus-galli), 140 g ai/ha
  Visual Growth Reduction (%) 14 Days After Application, ECHCG: G (0-29)
[1]; ORYSA: rice (Oryza sativa), 70 g ai/ha
  Visual Growth Reduction (%) 14 Days After Application, ORYSA: G (0-29)
[1]; ORYSA: rice (Oryza sativa), 140 g ai/ha
  Visual Growth Reduction (%) 14 Days After Application, ORYSA: G (0-29)
[1]; SETFA: giant foxtail (Setaria faberi), 70 g ai/ha
  Visual Growth Reduction (%) 14 Days After Application, SETFA: G (0-29)
[1]; SETFA: giant foxtail (Setaria faberi), 140 g ai/ha
  Visual Growth Reduction (%) 14 Days After Application, SETFA: G (0-29)
[1]; ZEAMX: maize, corn (Zea mays), 70 g ai/ha
  Visual Growth Reduction (%) 14 Days After Application, ZEAMX: G (0-29)
[1]; ZEAMX: maize, corn (Zea mays), 140 g ai/ha
  Visual Growth Reduction (%) 14 Days After Application, ZEAMX: G (0-29)
[2]; ABUTH: velvetleaf (Abutilon theophrasti), application rate 70 g ai/ha
  Visual Growth Reduction (%) 14 Days After Application, ABUTH: G (0-29)
[2]; ABUTH: velvetleaf (Abutilon theophrasti), application rate 140 g ai/ha
  Visual Growth Reduction (%) 14 Days After Application, ABUTH: G (0-29)
[2]; AMARE: redroot pigweed (Amaranthus retroflexus), application rate 70 g ai/ha
  Visual Growth Reduction (%) 14 Days After Application, AMARE: D (60-74)
[2]; AMARE: redroot pigweed (Amaranthus retroflexus), application rate 140 g ai/ha
  Visual Growth Reduction (%) 14 Days After Application, AMARE: B (85-94)
[2]; BRSNN: oilseed-rape, canola (Brassica napus), application rate 70 g ai/ha
  Visual Growth Reduction (%) 14 Days After Application, BRSNN: G (0-29)
[2]; BRSNN: oilseed-rape, canola (Brassica napus), application rate 140 g ai/ha
  Visual Growth Reduction (%) 14 Days After Application, BRSNN: G (0-29)
[2]; CHEAL: lambsquarters (Chenopodium album), application rate 70 g ai/ha
  Visual Growth Reduction (%) 14 Days After Application, CHEAL: A (95-100)
[2]; CHEAL: lambsquarters (Chenopodium album), application rate 140 g ai/ha
  Visual Growth Reduction (%) 14 Days After Application, CHEAL: A (95-100)
[2]; EPHHL: wild poinsettia (Euphorbia heterophylla), application rate 70 g ai/ha
  Visual Growth Reduction (%) 14 Days After Application, EPHHL: C (75-84)
[2]; EPHHL: wild poinsettia (Euphorbia heterophylla), application rate 140 g ai/ha
  Visual Growth Reduction (%) 14 Days After Application, EPHHL: C (75-84)
[2]; HELAN: sunflower (Helianthus annuus), application rate 70 g ai/ha
  Visual Growth Reduction (%) 14 Days After Application, HELAN: D (60-74)
[2]; HELAN: sunflower (Helianthus annuus), application rate 140 g ai/ha
  Visual Growth Reduction (%) 14 Days After Application, HELAN: C (75-84)
[2]; VIOTR: wild pansy (Viola tricolor), application rate 70 g ai/ha
  Visual Growth Reduction (%) 14 Days After Application, VIOTR: G (0-29)
[2]; VIOTR: wild pansy (Viola tricolor), application rate 140 g ai/ha
  Visual Growth Reduction (%) 14 Days After Application, VIOTR: G (0-29)
